Like-named read-outs stand apart in the source and are kept apart here.
Tests used:
[1] = tested on: E. coli DH5α/pLBII-CTX-M15; test: Broth microdilution MIC assay, engineered strain producing CTX-M15; format: cell-based, Escherichia coli; conditions: for MIC: Escherichia coli, read-out: E. coli DH5α/pLBII-CTX-M15 Microbiological Activity (MIC); for MIC in the CTX-M15 producer compared with the parent strain with the empty pLBII plasmid: comparison in words
Protocol: (§1) To determine the ability of test compounds to potentiate the inhibition of the growth of bacterial strains, classic cell based broth microdilution MIC assays were employed. MIC assays are performed according to CLSI methods except where otherwise noted (CLSI, 2011 and CLSI, 2009). The reference strain S. aureus ATCC 29213 and the hyper-permeable E. coli 901C were used to determine the ability of the PBP compounds to inhibit bacterial growth. Briefly, cryo-preserved bacterial cultures of clinical strains are streaked for isolation on appropriate agar medium, in this case Mueller Hinton II agar. Following incubation to allow formation of colonies these plates are sealed with parafilm and stored refrigerated for up to two weeks. For preparation of assay inocula and to ensure low variability, at least 5 colonies are picked from the agar plates with an inoculating loop and aseptically transferred to a culture tube containing 3 mL of Mueller-Hinton Broth (supplemented with divalent cations to required levels based on Manufacturers' certification). The broth culture is grown for 3-5 hours at 37° C. with shaking at 200 rpm. Meanwhile, 2-fold serial dilutions of test compounds are conducted in a 96 well plate with a final volume of 75 μL per well at 2-fold the final desired concentration. After the dilution plates are set up the growing cultures are then diluted in a cuvette containing MH II broth and the optical density is measured at 600 nm. Inocula are diluted such that 75 μL of this culture in Mueller-Hinton Broth results in a starting bacterial concentration of 5×10^5 CFU/mL when added to the dilution plates. The plates are incubated 16-20 hours at 37° C. The MIC is read visually as the lowest concentration well with no bacterial growth.
(§2) To determine if test compounds were affected by CTX-M15, the most abundant extended spectrum β-lactamase in clinical settings worldwide, the inhibition of the growth of an engineered strain of Escherichia coli harboring CTX-M15 was tested. This strain was constructed by cloning the gene encoding CTX-M15 into the NdeI and BamHI restriction endonuclease sites of plasmid pLBII, placing the gene(s) under the control of the Lac promoter. The constructed expression plasmid for CTX-M15 was used to transform competent E. coli DH5a cells to make the engineered strain, including an empty pLBII vector control strain. The classic cell based broth microdilution MIC assay was employed as described above with the addition of control antibiotics, known to be degraded by β-lactamases (Ceftazidime, piperacillin and piperacillin+tazobactam).

[2] = tested on: E. coli DH5α/pLBII; test: Broth microdilution MIC assay, empty vector control strain; format: cell-based; conditions: Escherichia coli, read-out: E. coli DH5α/pLBII Microbiological Activity (MIC)
Protocol: as §1, §2

[3] = tested on: hyper-permeable E. coli 901C; test: Broth microdilution MIC assay; format: cell-based; conditions: Escherichia coli, read-out: E. coli 901C MIC
Protocol: as §1

[4] = tested on: S. aureus ATCC 29213; test: Broth microdilution MIC assay; format: cell-based; conditions: Staphylococcus aureus
Protocol: as §1

[5] = ATCC29213, broth microdilution, 16-20 hours at 37° C., read-out: S. aureus 29213 MIC

SMILES	MIC [1]	MIC in the CTX-M15 producer compared with the parent strain with the empty pLBII plasmid [1]	MIC [2]	MIC [3]	MIC ([4]; ATCC29213, read-out: S. aureus 29213 MIC)	MIC [4, 5]
CCN1CCN(C(=O)N[C@@H](C(=O)N[C@@H]2C(=O)N3[C@@H]2SC(C)(C)[C@@H]3C(=O)O)c2ccccc2)C(=O)C1=O [piperacillin, reference compound]	128 to 256 µg/mL	weaker MICs	< 1 µg/mL	–	–	–
Nc1nc(C(NC(=O)N2CCCN(O)S2(=O)=O)C(=O)N[C@H]2Cc3cccc(C(=O)O)c3OB2O)cs1 (stereo partly drawn) [Example 77, (3R)-3-(2-(2-aminothiazol-4-yl)-2-(6-hydroxy-1,1-dioxido-1,2,6-thiadiazinane-2-carboxamido)acetamido)-2-hydroxy-3,4-dihydro-2H-benzo[e][1,2]oxaborinine-8-carboxylic acid]	32 to 64 µg/mL	–	32 to 64 µg/mL	< 64 µg/mL	> 128 µg/mL	–
Nc1nc([C@@H](N)C(=O)N[C@H]2Cc3cccc(C(=O)O)c3OB2O)cs1 [Example 8, (R)-3-((R)-2-amino-2-(2-aminothiazol-4-yl)acetamido)-2-hydroxy-3,4-dihydro-2H-benzo[e][1,2]oxaborinine-8-carboxylic acid]	> 512 µg/mL	–	> 512 µg/mL	> 128 µg/mL	–	> 128 µg/mL
Nc1nc(CC(=O)NC(C(=O)N[C@H]2Cc3cccc(C(=O)O)c3OB2O)c2csc(N)n2)cs1 (stereo partly drawn) [Example 22, (3R)-3-(2-(2-aminothiazol-4-yl)-2-(2-(2-aminothiazol-4-yl)acetamido)acetamido)-2-hydroxy-3,4-dihydro-2H-benzo[e][1,2]oxaborinine-8-carboxylic acid]	128 to 256 µg/mL	–	128 to 256 µg/mL	< 64 µg/mL	–	64 to 128 µg/mL
N[C@H](C(=O)N[C@H]1Cc2cccc(C(=O)O)c2OB1O)c1ccc(O)cc1 [Example 7, (R)-3-((S)-2-amino-2-(4-hydroxyphenyl)acetamido)-2-hydroxy-3,4-dihydro-2H-benzo[e][1,2]oxaborinine-8-carboxylic acid]	128 to 256 µg/mL	–	128 to 256 µg/mL	> 128 µg/mL	–	64 to 128 µg/mL
CCN1CCN(C(=O)N[C@H](Cc2c[nH]cn2)C(=O)N[C@H]2Cc3cccc(C(=O)O)c3OB2O)C(=O)C1=O [Example 40, (R)-3-((R)-2-(4-ethyl-2,3-dioxopiperazine-1-carboxamido)-3-(1H-imidazol-4-yl)propanamido)-2-hydroxy-3,4-dihydro-2H-benzo[e][1,2]oxaborinine-8-carboxylic acid]	128 to 256 µg/mL	–	128 to 256 µg/mL	64 to 128 µg/mL	–	> 128 µg/mL
CCN1CCN(C(=O)N[C@H](CO)C(=O)N[C@H]2Cc3cccc(C(=O)O)c3OB2O)C(=O)C1=O [Example 35, (R)-3-((R)-2-(4-Ethyl-2,3-dioxopiperazine-1-carboxamido)-3-hydroxy-propanamido)-2-hydroxy-3,4-dihydro-2H-benzo[e][1,2]oxaborinine-8-carboxylic acid]	32 to 64 µg/mL	–	32 to 64 µg/mL	< 64 µg/mL	–	> 128 µg/mL
Nc1nc(C(NCC(=O)O)C(=O)N[C@H]2Cc3cccc(C(=O)O)c3OB2O)cs1 (stereo partly drawn) [Example 10, (3R)-3-(2-(2-aminothiazol-4-yl)-2-((carboxymethyl)amino)acetamido)-2-hydroxy-3,4-dihydro-2H-benzo[e][1,2]oxaborinine-8-carboxylic acid]	–	–	–	–	–	> 128 µg/mL
COc1ccc([C@H](N)C(=O)N[C@H]2Cc3cccc(C(=O)O)c3OB2O)cc1 [Example 5, (R)-3-((S)-2-amino-2-(4-methoxyphenyl)acetamido)-2-hydroxy-3,4-dihydro-2H-benzo[e][1,2]oxaborinine-8-carboxylic acid]	> 512 µg/mL	–	> 512 µg/mL	> 128 µg/mL	–	64 to 128 µg/mL
NCC1CCCN(C(=O)NC(C(=O)N[C@H]2Cc3cccc(C(=O)O)c3OB2O)c2csc(N)n2)C1 (stereo partly drawn) [Example 76, (3R)-3-(2-(3-(aminomethyl)piperidine-1-carboxamido)-2-(2-aminothiazol-4-yl)acetamido)-2-hydroxy-3,4-dihydro-2H-benzo[e][1,2]oxaborinine-8-carboxylic acid]	–	–	–	64 to 128 µg/mL	–	> 128 µg/mL
Nc1nc(C(NC(=O)CCB(O)O)C(=O)N[C@H]2Cc3cccc(C(=O)O)c3OB2O)cs1 (stereo partly drawn) [Example 89, (3R)-3-(2-(2-aminothiazol-4-yl)-2-(3-boronopropanamido)acetamido)-2-hydroxy-3,4-dihydro-2H-benzo[e][1,2]oxaborinine-8-carboxylic acid]	128 to 256 µg/mL	–	–	> 128 µg/mL	–	> 128 µg/mL
NCC1CCN(C(=O)NC(C(=O)N[C@H]2Cc3cccc(C(=O)O)c3OB2O)c2csc(N)n2)CC1 (stereo partly drawn) [Example 75, (3R)-3-(2-(4-(aminomethyl)piperidine-1-carboxamido)-2-(2-aminothiazol-4-yl)acetamido)-2-hydroxy-3,4-dihydro-2H-benzo[e][1,2]oxaborinine-8-carboxylic acid]	–	–	–	< 64 µg/mL	–	> 128 µg/mL
CCN1CCN(C(=O)NC(C(=O)N[C@H]2Cc3cccc(C(=O)O)c3OB2O)C(C)c2ccccc2)C(=O)C1=O (stereo partly drawn) [Example 84, (3R)-3-(2-(4-ethyl-2,3-dioxopiperazine-1-carboxamido)-3-phenylbutanamido)-2-hydroxy-3,4-dihydro-2H-benzo[e][1,2]oxaborinine-8-carboxylic acid]	128 to 256 µg/mL	–	–	< 64 µg/mL	–	64 to 128 µg/mL
COC(=O)CCNC(=O)NC(C(=O)N[C@H]1Cc2cccc(C(=O)O)c2OB1O)c1csc(N)n1 (stereo partly drawn) [Example 88, (3R)-3-(2-(2-aminothiazol-4-yl)-2-(3-(3-methoxy-3-oxopropyl)ureido)acetamido)-2-hydroxy-3,4-dihydro-2H-benzo[e][1,2]oxaborinine-8-carboxylic acid]	128 to 256 µg/mL	–	–	< 64 µg/mL	–	> 128 µg/mL
CCN1CCN(C(=O)N[C@H](C(=O)N[C@H]2Cc3cccc(C(=O)O)c3OB2O)C(O)c2ccccc2)C(=O)C1=O (single isomer, unassigned) [Example 81]	–	–	–	> 128 µg/mL	–	> 128 µg/mL
CC(C)(O/N=C(\C(=O)N[C@@H]1C(=O)N2C(C(=O)[O-])=C(C[n+]3ccccc3)CS[C@H]12)c1csc(N)n1)C(=O)O [ceftazidime, reference compound]	8 to 16 µg/mL	weaker MICs	< 1 µg/mL	–	–	–
Nc1nc(C(NC(=O)NCCC(=O)O)C(=O)N[C@H]2Cc3cccc(C(=O)O)c3OB2O)cs1 (stereo partly drawn) [Example 87, (3R)-3-(2-(2-aminothiazol-4-yl)-2-(3-(2-carboxyethyl)ureido)acetamido)-2-hydroxy-3,4-dihydro-2H-benzo[e][1,2]oxaborinine-8-carboxylic acid]	128 to 256 µg/mL	–	–	64 to 128 µg/mL	–	> 128 µg/mL
Nc1nc(C(NC(=O)NCC(=O)O)C(=O)N[C@H]2Cc3cccc(C(=O)O)c3OB2O)cs1 (stereo partly drawn) [Example 90, (3R)-3-(2-(2-aminothiazol-4-yl)-2-(3-(carboxymethyl)ureido)acetamido)-2-hydroxy-3,4-dihydro-2H-benzo[e][1,2]oxaborinine-8-carboxylic acid]	128 to 256 µg/mL	–	–	< 64 µg/mL	–	> 128 µg/mL
CS(=O)(=O)N1CCC(C(=O)NC(C(=O)N[C@H]2Cc3cccc(C(=O)O)c3OB2O)c2csc(N)n2)CC1 (stereo partly drawn) [Example 70, (3R)-3-(2-(2-aminothiazol-4-yl)-2-(1-(methylsulfonyl)piperidine-4-carboxamido)acetamido)-2-hydroxy-3,4-dihydro-2H-benzo[e][1,2]oxaborinine-8-carboxylic acid]	–	–	–	< 64 µg/mL	–	> 128 µg/mL
CCN1CCN(C(=O)N[C@@H](C(=O)N[C@H]2Cc3cccc(C(=O)O)c3OB2O)C(O)c2ccccc2)C(=O)C1=O (single isomer, unassigned) [Example 80]	–	–	–	< 64 µg/mL	–	64 to 128 µg/mL
CC(=O)N1CCN(C(=O)NC(C(=O)N[C@H]2Cc3cccc(C(=O)O)c3OB2O)c2csc(N)n2)C1=O (stereo partly drawn) [Example 71, (3R)-3-(2-(3-acetyl-2-oxoimidazolidine-1-carboxamido)-2-(2-aminothiazol-4-yl)acetamido)-2-hydroxy-3,4-dihydro-2H-benzo[e][1,2]oxaborinine-8-carboxylic acid]	–	–	–	< 64 µg/mL	–	64 to 128 µg/mL
